Measurements: ChEMBL document CHEMBL3875223, “Activation of lysine-specific demethylase 1 inhibitor peptide by redox-controlled cleavage of a traceless linker” (Bioorg Med Chem, 2017)

Target: Lysine-specific histone demethylase 1A (Homo sapiens, UniProt O60341)
Assay: Inhibition of human LSD1 assessed as reduction in H2O2 production using H3K4me2 (1 to 20 residues) peptide as substrate preincubated for 10 mins followed by substrate addition measured after 30 mins in presence of DTT by peroxidase coupled enzyme assay

- Ki: 190 µM
Structure (SMILES): CC(C)C[C@H](NC(=O)[C@H](Cc1ccccc1)NC(=O)[C@H](CO)NC(=O)[C@H](CCCNC(=N)N)NC(=O)[C@@H]1CCCN1C(=O)CO)C(=O)N[C@H](C(=O)N[C@@H](CCCNC(=N)N)C(=O)N[C@@H](CCCCN)C(=O)N1CCC[C@H]1C(=O)N[C@@H](CCCCNC(=O)CO)C(N)=O)C(C)C
